US20160221989A1, “N-Acylpyrrolidine Ether Tropomyosin-Related Kinase Inhibitors” (Pfizer Inc., priority 2014, published 2016)
pIC50: −log10 of the molar value.

Molecular target: T1, TRKA (Homo sapiens, UniProt P04629)
T1 construct: aa 441-; 4 nM; 40 uM; 35 min; (NTRK1); 796; His; purchased Invitrogen PV3144
Test: Isolated TRK enzyme assay (HTRF KinEASE-TK kit, PV3144 TrkA enzyme assay)
Type: biochemical
Conditions: recombinant His-tagged cytoplasmic domain aa 441-796, 4 nM enzyme, 40 uM ATP, 35 min, arithmetic mean where more than one reading
Description: Isolated TRK Enzyme assays use the HTRF KinEASE-TK kit (Cisbio Cat#62TKOPEJ) with recombinant His-tagged cytoplasmic domains of TRKA receptor sourced from Invitrogen (see table below). This activity-assay measures the phosphorylation of tyrosine residues within a substrate from the HTRF kit which has been validated by Cisbio for a variety of tyrosine kinases including the TRK receptors.
0.5 mM stock solutions of test compounds are prepared and serially diluted in 100% DMSO. […] Greiner low volume black plates containing 0.2 ul of serially diluted compound, standard and HPE/ZPE are created using the Bravo nanolitre dispenser. 1× enzyme buffer is prepared from 5× Enzymatic Buffer from the Cisbio KinEASE TK kit using MilliQ water. The buffer is then supplemented with 10 mM MgCl and 2 mM DTT (both from Sigma). […] 2×FAC of enzyme and 2×FAC ATP diluted in 1× complete enzyme buffer is incubated at room temperature for 20 minutes to preactivate the enzyme. Following this preactivation step, 5 ul/well of enzyme+ATP mix is added using a Multidrop Micro to the assay plate, spotted with 0.2 ul 100% DMSO compound. This is left for 20 mins at room temperature before adding 5 ul of 2 uM TK-substrate-Biotin (from the Cisbio kit) diluted in 1× enzyme buffer (1 uM FAC) using the Multidrop Micro. The reaction is incubated at room temperature for the optimized assay reaction time (see table).
After the Detection Reagent addition, plates are covered and incubated at room temperature for 60 minutes. HTRF signal is read using an Envision reader, measured as a ratio of emissions at two different wavelengths, 620 nm and 665 nm. […] Test compound data are expressed as percentage inhibition defined by HPE and ZPE values for each plate.
Percentage inhibition in the presence of test compound is plotted against compound concentration on a log scale to determine an IC50 from the resultant sigmoid curve. Cell Based Assays were carried out using Cell lines from DiscoveRx utilising their PathHunter technology and reagents in an antagonist assay:
Where more than one reading was taken, the arithmetic mean is presented.

T1 sequence (P04629 441-796): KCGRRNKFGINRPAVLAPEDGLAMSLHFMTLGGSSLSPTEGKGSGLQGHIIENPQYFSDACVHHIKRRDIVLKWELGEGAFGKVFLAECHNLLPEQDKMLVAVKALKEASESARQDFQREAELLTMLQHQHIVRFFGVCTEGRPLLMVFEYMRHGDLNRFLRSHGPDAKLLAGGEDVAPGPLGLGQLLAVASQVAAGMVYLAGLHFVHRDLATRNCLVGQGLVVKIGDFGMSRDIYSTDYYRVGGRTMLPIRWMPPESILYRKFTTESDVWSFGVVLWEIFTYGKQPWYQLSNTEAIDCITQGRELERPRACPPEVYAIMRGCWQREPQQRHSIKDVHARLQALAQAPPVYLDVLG

SMILES | pIC50
CC(C)(O)CNC(=O)c1cnc(N)c(OC2CN(C(=O)Cc3ccc(OC(F)(F)F)cc3)CC2(F)F)c1 (racemic) [Example 10, (S)-6-amino-5-[(4,4-difluoro-1-{[4-(trifluoromethoxy)phenyl]acetyl}pyrrolidin-3-yl)oxy]-N-(2-hydroxy-2-methylpropyl)pyridine-3-carboxamide] | 5.06
CCN(CC)C(=O)c1cnc(N)c(OC2CN(C(=O)Cc3ccc(OC(F)(F)F)cc3)CC2(C)OC)c1 (racemic) [Example 25, Racemic-6-amino-N,N-diethyl-5-[(4-methoxy-4-methyl-1-{[4-(trifluoromethoxy)phenyl]acetyl}pyrrolidin-3-yl)oxy]pyridine-3-carboxamide] | 6.89
NC(=O)c1cnc(N)c(COC2CN(C(=O)Cc3ccc(OC(F)(F)F)cc3)CC2(F)F)c1 (single isomer, unassigned) [Example 5] | 7.97
NC(=O)c1cnc(N)c(COC2CN(C(=O)Cc3ccc(OC(F)(F)F)cc3)CC2(F)F)c1 (single isomer, unassigned) [Example 6] | 6.20
NC(=O)c1cnc(N)c(OCC2CN(C(=O)Cc3ccc(OC(F)(F)F)cc3)CC2(F)F)c1 (single isomer, unassigned) [Example 15] | 7.80
CNC(=O)c1cnc(N)c(OC2CN(C(=O)Cc3ccc(OC(F)(F)F)cc3)CC23CC3)c1 (stereo not drawn) [Example 16, 6-amino-N-methyl-5-[(5-{[4-(trifluoromethoxy)phenyl]acetyl}-5-azaspiro[2.4]hept-7-yl)oxy]pyridine-3-carboxamide] | 7.14
NC(=O)c1cnc(N)c(OC2CN(C(=O)Cc3ccc(OC(F)(F)F)cc3)CC23CC3)c1 (stereo not drawn) [Example 18, 6-amino-5-[(5-{[4-(trifluoromethoxy)phenyl]acetyl}-5-azaspiro[2.4]hept-7-yl)oxy]pyridine-3-carboxamide] | 6.96
CC1(C)CN(C(=O)Cc2ccc(OC(F)(F)F)cc2)C[C@@H]1Oc1cc(C(N)=O)cnc1N [Example 19, (R)-6-amino-5-[(4,4-dimethyl-1-{[4-(trifluoromethoxy)phenyl]acetyl}pyrrolidin-3-yl)oxy]pyridine-3-carboxamide] | 7.93
C[C@H]1CN(C(=O)Cc2ccc(OC(F)(F)F)cc2)C[C@@H]1Oc1cc(C(=O)NCC#N)cnc1N [Example 22, (3R,4S)-6-amino-N-(cyanomethyl)-5-[(4-methyl-1-{[4-(trifluoromethoxy)phenyl]acetyl}pyrrolidin-3-yl)oxy]pyridine-3-carboxamide] | 6.48
C[C@H]1CN(C(=O)Cc2ccc(OC(F)(F)F)cc2)C[C@@H]1Oc1cc(C(=O)NCC(C)(C)O)cnc1N [Example 23, (3R,4S)-6-amino-N-(2-hydroxy-2-methylpropyl)-5-[(4-methyl-1-{[4-(trifluoromethoxy)phenyl]acetyl}pyrrolidin-3-yl)oxy]pyridine-3-carboxamide] | 5.68

The remaining compounds from weak to strong by pIC50, led by results:

pIC50 | SMILES
5.90 | CNC(=O)c1cnc(N)c(OCC2CN(C(=O)Cc3ccc(OC(F)(F)F)cc3)CC2(F)F)c1 (single isomer, unassigned) [Example 12]
6.83 | Nc1ncc(C(=O)NCCO)cc1OC1CN(C(=O)Cc2ccc(OC(F)(F)F)cc2)CC1(F)F (single isomer, unassigned) [Example 8]
6.90 | CCNC(=O)c1cnc(N)c(O[C@H]2CN(C(=O)Cc3ccc(OC(F)(F)F)cc3)C[C@@H]2C)c1 [Example 21, (3R,4S)-6-amino-N-ethyl-5-[(4-methyl-1-{[4-(trifluoromethoxy)phenyl]acetyl}pyrrolidin-3-yl)oxy]pyridine-3-carboxamide]
6.98 | CNC(=O)c1cnc(N)c(O[C@H]2CN(C(=O)Cc3ccc(OC(F)(F)F)cc3)C[C@@H]2C)c1 [Example 17, (3R,4S)-6-amino-N-methyl-5-[(4-methyl-1-{[4-(trifluoromethoxy)phenyl]acetyl}pyrrolidin-3-yl)oxy]pyridine-3-carboxamide]
7.26 | CNC(=O)c1cnc(N)c(OC2CN(C(=O)Cc3ccc(OC(F)(F)F)cc3)CC2(C)OC)c1 (racemic) [Example 24, Racemic-6-amino-5-[(4-methoxy-4-methyl-1-{[4-(trifluoromethoxy)phenyl]acetyl}pyrrolidin-3-yl)oxy]-N-methylpyridine-3-carboxamide]
7.52 | NC(=O)c1cnc(N)c(OCC2CN(C(=O)Cc3ccc(OC(F)(F)F)cc3)CC2(F)F)c1 (racemic) [Example 13, Racemic-6-amino-5-[(4,4-difluoro-1-{[4-(trifluoromethoxy)phenyl]acetyl}pyrrolidin-3-yl)methoxy]pyridine-3-carboxamide]
7.91 | CNC(=O)c1cnc(N)c(O[C@H]2CN(C(=O)Cc3ccc(OC(F)(F)F)cc3)CC2(C)C)c1 [Example 20, (R)-6-amino-5-[(4,4-dimethyl-1-{[4-(trifluoromethoxy)phenyl]acetyl}pyrrolidin-3-yl)oxy]-N-methylpyridine-3-carboxamide]
7.94 | CNC(=O)c1cnc(N)c(OCC2CN(C(=O)Cc3ccc(OC(F)(F)F)cc3)CC2(F)F)c1 (single isomer, unassigned) [Example 11]
